One data set concerns the target c-Raf-1 (Homo sapiens, UniProt P04049). Put plainly: c-Raf-1 biochemical kinase inhibition (AlphaScreen, biotin-MEK1 substrate). The conditions noted are these: 100 μM ATP. The method, then: Compounds to be tested are diluted in dimethyl sulfoxide to a concentration of 0.1 mM. These are serially diluted 15 μL into 30 μL of dimethyl sulfoxide seven times in 96 well plates for a total of 8 dilution points, and for each dilution point 1 μL is added to a well of an assay plate. […] The reaction is started with addition of 10 μL of 200 μM ATP (i.e. final 100 μM ATP). […] The plates are incubated for 3 hours at room temperature and read on Envision reader (Perkin Elmer). […] The signal vs. compound concentration is used to determine the IC50.
(In Alpha technology, singlet oxygen from a donor bead excites a nearby acceptor bead.)

The next data set deals with B-Raf V600E (Homo sapiens, UniProt P15056, V600E). The data set can be described thus: B-Raf V600E biochemical kinase inhibition (AlphaScreen, biotin-MEK1 substrate). The conditions noted are these: 100 μM ATP. Summed up:
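IC50 derived from AlphaScreen signal plotted against compound concentration. Final ATP 100 μM; 3 h incubation at room temperature. Eight-point 3-fold dilution series prepared from a 0.1 mM DMSO stock.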

The nature of data set [1]: Relative solubility by turbidity in aqueous buffers of varying pH. Type of data set: physicochemical. The conditions noted are these: for turbidity threshold (L, M, H) 7.4: HEPES pH 7.4; for turbidity threshold (L, M, H) 4.5: SIF pH 4.5; for turbidity threshold (L, M, H) 6.8: SIF pH 6.8; for turbidity threshold (L, M, H) 1.4: buffer pH 1.4 (SGF). The gist of the method:
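Turbidity endpoint: concentration where optical density at 490, 535 and 650 nm exceeds 0.01, three-wavelength average used. Buffers at pH 1.5, 4.5, 6.8 and 7.4; DMSO serial dilutions of 25 mM stock spiked 1 μL into 99 μL buffer. Low <31.3, moderate 31.3–250, high >250 μM.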

The target in another data set is CYP2C19 (Homo sapiens, UniProt P33261). Put plainly: CYP2C19 inhibition (fluorescent substrate). Type of data set: in vitro ADME. The conditions noted are these: CYP2C19, CEC substrate; read-out: Cyp IC50 2C19. The method, then: (§1) CYP (Cytochrome P450) enzymes are the major drug metabolizing enzymes present in the liver. The inhibition of CYP enzyme activity (IC50) for each of CYP1A2, CYP2C19, CYP2C9, CYP2D6, CYP3A4(BFC) and CYP3A4(BQ) is determined for compounds, where inhibition of metabolism of a known substrate leads to a decrease in the fluorescence of the metabolized product. The fluorescence of the product is monitored as a function of compound concentration.
Sequence of CYP2C19 (P33261 whole entry): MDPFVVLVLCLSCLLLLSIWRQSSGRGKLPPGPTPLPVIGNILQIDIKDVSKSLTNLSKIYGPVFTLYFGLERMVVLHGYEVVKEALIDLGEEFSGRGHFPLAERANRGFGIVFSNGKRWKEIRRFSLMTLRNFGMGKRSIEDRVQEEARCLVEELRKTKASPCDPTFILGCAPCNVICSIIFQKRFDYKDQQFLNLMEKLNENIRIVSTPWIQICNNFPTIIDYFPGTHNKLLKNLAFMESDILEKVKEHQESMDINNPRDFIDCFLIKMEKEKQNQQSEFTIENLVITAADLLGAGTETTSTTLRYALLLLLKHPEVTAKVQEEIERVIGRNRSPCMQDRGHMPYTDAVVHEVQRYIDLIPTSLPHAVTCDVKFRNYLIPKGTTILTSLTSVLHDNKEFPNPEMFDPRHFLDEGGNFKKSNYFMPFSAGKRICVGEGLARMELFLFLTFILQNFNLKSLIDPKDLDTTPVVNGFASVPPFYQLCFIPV
(§2) Compounds are dissolved in dimethyl sulfoxide to a concentration of 100 mM. These are diluted 1 μL into 82 μL of acetonitrile. […] These are then serially diluted 1:1 (160 μL to 160 μL co-factor mix) for a total of 10 points. A 10 μL aliquot of this final mixture is dispensed into 384 well assay plates and incubated for 10 minutes at 37° C. […] Assay plates are incubated at 37° C. […] The signal versus compound concentration is used to determine the IC50. The enzymes and substrates for this assay are obtained from BD Biosciences.

The next data set deals with CYP2C9 (Homo sapiens, UniProt P11712). The data set can be described thus: CYP2C9 inhibition (fluorescent substrate). Particulars: CYP2C9, MFC substrate; read-out: Cyp IC50 2C9. Type of data set: in vitro ADME. The method, then:
as §1, §2

The IC50 is the point on the concentration scale where inhibition reaches its midpoint.

Sequence of CYP2C9 (P11712 whole entry): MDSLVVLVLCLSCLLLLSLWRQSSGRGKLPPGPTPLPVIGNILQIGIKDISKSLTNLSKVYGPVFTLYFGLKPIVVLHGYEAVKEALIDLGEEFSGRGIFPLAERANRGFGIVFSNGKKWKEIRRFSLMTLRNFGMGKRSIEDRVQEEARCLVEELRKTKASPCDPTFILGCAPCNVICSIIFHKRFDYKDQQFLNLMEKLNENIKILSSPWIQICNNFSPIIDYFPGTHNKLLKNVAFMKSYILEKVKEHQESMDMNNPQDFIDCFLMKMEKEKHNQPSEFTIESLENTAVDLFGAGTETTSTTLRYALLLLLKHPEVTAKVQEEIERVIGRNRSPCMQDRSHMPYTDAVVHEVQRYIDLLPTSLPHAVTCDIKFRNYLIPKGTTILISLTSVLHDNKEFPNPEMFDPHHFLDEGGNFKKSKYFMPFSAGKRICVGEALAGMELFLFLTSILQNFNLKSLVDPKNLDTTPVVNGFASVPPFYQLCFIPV
Sequence of B-Raf V600E (P15056 whole entry V600E): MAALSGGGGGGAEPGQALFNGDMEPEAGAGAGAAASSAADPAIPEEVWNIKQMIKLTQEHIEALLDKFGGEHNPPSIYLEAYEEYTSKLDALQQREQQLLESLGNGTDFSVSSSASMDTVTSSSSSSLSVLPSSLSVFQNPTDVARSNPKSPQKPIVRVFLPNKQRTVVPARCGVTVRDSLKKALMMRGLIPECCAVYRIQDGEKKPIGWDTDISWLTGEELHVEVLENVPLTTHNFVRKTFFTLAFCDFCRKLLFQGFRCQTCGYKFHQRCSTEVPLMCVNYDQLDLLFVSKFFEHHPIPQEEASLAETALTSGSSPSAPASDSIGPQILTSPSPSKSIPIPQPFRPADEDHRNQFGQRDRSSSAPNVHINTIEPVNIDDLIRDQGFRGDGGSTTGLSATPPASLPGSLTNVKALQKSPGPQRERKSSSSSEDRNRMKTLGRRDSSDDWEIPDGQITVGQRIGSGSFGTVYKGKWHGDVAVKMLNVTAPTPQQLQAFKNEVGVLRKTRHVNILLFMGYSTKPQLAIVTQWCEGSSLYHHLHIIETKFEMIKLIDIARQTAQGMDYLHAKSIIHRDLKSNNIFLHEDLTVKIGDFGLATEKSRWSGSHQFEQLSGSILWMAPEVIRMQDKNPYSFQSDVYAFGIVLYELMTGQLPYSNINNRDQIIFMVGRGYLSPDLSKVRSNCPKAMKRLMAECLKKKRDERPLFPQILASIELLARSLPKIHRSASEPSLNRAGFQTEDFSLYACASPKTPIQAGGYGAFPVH
Sequence of c-Raf-1 (P04049 whole entry): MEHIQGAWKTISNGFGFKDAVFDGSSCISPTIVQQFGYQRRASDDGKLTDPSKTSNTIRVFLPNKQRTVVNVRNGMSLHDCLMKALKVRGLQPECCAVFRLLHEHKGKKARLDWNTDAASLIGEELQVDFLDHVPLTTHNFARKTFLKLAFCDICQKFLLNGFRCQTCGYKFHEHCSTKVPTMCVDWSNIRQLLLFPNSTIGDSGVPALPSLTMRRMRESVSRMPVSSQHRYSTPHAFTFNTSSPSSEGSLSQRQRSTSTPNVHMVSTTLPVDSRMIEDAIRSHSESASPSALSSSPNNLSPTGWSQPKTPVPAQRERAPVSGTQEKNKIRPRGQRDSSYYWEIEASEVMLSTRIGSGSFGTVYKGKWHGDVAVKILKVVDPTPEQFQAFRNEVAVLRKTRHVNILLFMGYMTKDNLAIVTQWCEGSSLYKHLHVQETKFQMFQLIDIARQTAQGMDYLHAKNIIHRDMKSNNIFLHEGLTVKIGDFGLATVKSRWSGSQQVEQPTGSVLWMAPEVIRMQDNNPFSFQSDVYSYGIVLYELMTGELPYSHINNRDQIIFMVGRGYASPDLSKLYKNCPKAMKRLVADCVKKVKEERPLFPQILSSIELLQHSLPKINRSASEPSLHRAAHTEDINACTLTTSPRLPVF

On to `O=C(c1c(F)ccc(NS(=O)(=O)c2c(F)cccc2F)c1F)c1c[nH]c2ncc(Cl)cc12` [P-2003, N-[3-(5-Chloro-1H-pyrrolo[2,3-b]pyridine-3-carbonyl)-2,4-difluoro-phenyl]-2,6-difluoro-benzenesulfonamide], for which the IC50 at c-Raf-1 is less than 0.01 µM; at B-Raf V600E, less than 0.1 µM; at CYP2C19 it was greater than 10 µM; on CYP2C9, greater than 10 µM. Further, in data set [1], the “turbidity threshold (L, M, H) 7.4” value is listed as “H (high solubility if the threshold concentration is >250 μM)”. The “turbidity threshold (L, M, H) 4.5” value in data set [1] was “M (moderate solubility if the threshold concentration is 31.3 μM to 250 μM)”. Also, the “turbidity threshold (L, M, H) 6.8” value in data set [1] is recorded as “M (moderate solubility if the threshold concentration is 31.3 μM to 250 μM)”. Also, in data set [1], the “turbidity threshold (L, M, H) 1.4” value is listed as “M (moderate solubility if the threshold concentration is 31.3 μM to 250 μM)”.
In the case of `COc1ccnc2[nH]cc(C(=O)c3c(F)ccc(NS(=O)(=O)c4cccc(F)c4)c3F)c12` [P-2023, N-[2,4-Difluoro-3-(4-methoxy-1H-pyrrolo[2,3-b]pyridine-3-carbonyl)-phenyl]-3-fluoro-benzenesulfonamide], the half-maximal inhibitory concentration (IC50) against c-Raf-1 was less than 0.01 µM. Moreover, the concentration for half-maximal inhibition (IC50) on B-Raf V600E is less than 0.01 µM. Also, in data set [1], the “turbidity threshold (L, M, H) 7.4” value is “M (moderate solubility if the threshold concentration is 31.3 μM to 250 μM)”; the “turbidity threshold (L, M, H) 4.5” value is reported as “M (moderate solubility if the threshold concentration is 31.3 μM to 250 μM)”; the “turbidity threshold (L, M, H) 6.8” value is listed as “M (moderate solubility if the threshold concentration is 31.3 μM to 250 μM)”; the “turbidity threshold (L, M, H) 1.4” value is given as “H (high solubility if the threshold concentration is >250 μM)”. For the same molecule, on CYP2C19, the half-maximal inhibitory concentration (IC50) is greater than 10 µM. Besides, at CYP2C9, the IC50 fell in the range of 5 to 10 µM.
For the molecule `N#Cc1cnc2[nH]cc(C(=O)c3c(F)ccc(NS(=O)(=O)c4c(F)cccc4F)c3F)c2c1` [P-2029, N-[3-(5-Cyano-1H-pyrrolo[2,3-b]pyridine-3-carbonyl)-2,4-difluoro-phenyl]-2,6-difluoro-benzenesulfonamide], the IC50 against c-Raf-1 is less than 0.01 µM; against B-Raf V600E, less than 0.01 µM; on CYP2C19 it was greater than 10 µM; at CYP2C9, greater than 10 µM.
`COc1ccnc2[nH]cc(C(=O)c3c(F)ccc(NS(=O)(=O)c4c(F)cccc4F)c3F)c12` [P-2031, N-[2,4-Difluoro-3-(4-methoxy-1H-pyrrolo[2,3-b]pyridine-3-carbonyl)-phenyl]-2,6-difluoro-benzenesulfonamide]: the IC50 against c-Raf-1 was less than 0.1 µM; against B-Raf V600E, less than 0.1 µM; at CYP2C19 it was greater than 10 µM; at CYP2C9, greater than 10 µM.
Take `O=C(c1c(F)ccc(NS(=O)(=O)c2c(F)cccc2F)c1F)c1c[nH]c2nccc(Cl)c12` [P-2033, N-[3-(4-Chloro-1H-pyrrolo[2,3-b]pyridine-3-carbonyl)-2,4-difluoro-phenyl]-2,6-difluoro-benzenesulfonamide]: the IC50 is less than 0.01 µM at c-Raf-1, less than 0.01 µM at B-Raf V600E, greater than 10 µM on CYP2C19 and greater than 10 µM at CYP2C9.
As for `N#Cc1cnc2[nH]cc(C(=O)c3cccc(NS(=O)(=O)c4c(F)cccc4F)c3F)c2c1` [P-2054, N-[3-(5-Cyano-1H-pyrrolo[2,3-b]pyridine-3-carbonyl)-2-fluoro-phenyl]-2,6-difluoro-benzenesulfonamide], the IC50 was less than 0.1 µM against c-Raf-1, less than 0.01 µM at B-Raf V600E, greater than 10 µM on CYP2C19 and greater than 10 µM on CYP2C9.
On to `N#Cc1cnc2[nH]cc(C(=O)c3c(F)ccc(NS(=O)(=O)c4cccnc4)c3F)c2c1` [P-2072, Pyridine-3-sulfonic acid [3-(5-cyano-1H-pyrrolo[2,3-b]pyridine-3-carbonyl)-2,4-difluoro-phenyl]-amide], for which the IC50 was less than 0.01 µM on c-Raf-1, less than 0.01 µM on B-Raf V600E, greater than 10 µM at CYP2C19 and greater than 10 µM at CYP2C9.
As to `COc1ccnc2[nH]cc(C(=O)c3c(F)ccc(NS(=O)(=O)c4cccnc4)c3F)c12` [P-2073, Pyridine-3-sulfonic acid [2,4-difluoro-3-(4-methoxy-1H-pyrrolo[2,3-b]pyridine-3-carbonyl)-phenyl]-amide], the concentration for half-maximal inhibition (IC50) at c-Raf-1 was less than 0.01 µM; against B-Raf V600E it was less than 0.1 µM; on CYP2C19 it was greater than 10 µM; on CYP2C9, greater than 10 µM.
As to `CCCS(=O)(=O)Nc1ccc(F)c(C(=O)c2c[nH]c3ncc(-c4ccc(Cl)nc4)cc23)c1F` [P-2154, Propane-1-sulfonic acid {3-[5-(6-chloro-pyridin-3-yl)-1H-pyrrolo[2,3-b]pyridine-3-carbonyl]-2,4-difluoro-phenyl}-amide], the IC50 at c-Raf-1 is less than 0.01 µM; against B-Raf V600E it was less than 0.1 µM; on CYP2C19, 5 to 10 µM; at CYP2C9 it was 5 to 10 µM.
`CCCS(=O)(=O)Nc1ccc(F)c(C(=O)c2c[nH]c3ncc(-c4ccc(S(=O)(=O)NC)cc4)cc23)c1F` [P-2167, 4-{3-[2,6-Difluoro-3-(propane-1-sulfonylamino)-benzoyl]-1H-pyrrolo[2,3-b]pyridin-5-yl}-N-methyl-benzenesulfonamide]: the concentration for half-maximal inhibition (IC50) against c-Raf-1 was less than 0.01 µM; against B-Raf V600E, less than 0.01 µM; at CYP2C19, 5 to 10 µM; on CYP2C9 it was 5 to 10 µM.
`CCCS(=O)(=O)Nc1ccc(F)c(C(=O)c2c[nH]c3ncc(-c4cnc(N5CCOCC5)nc4)cc23)c1F` [P-2197, Propane-1-sulfonic acid {2,4-difluoro-3-[5-(2-morpholin-4-yl-pyrimidin-5-yl)-1H-pyrrolo[2,3-b]pyridine-3-carbonyl]-phenyl}-amide] registered an IC50 against B-Raf V600E of less than 0.01 µM. For the same molecule, in data set [1], the “turbidity threshold (L, M, H) 7.4” value is “L (low solubility if the threshold concentration is <31.3 04)”; the “turbidity threshold (L, M, H) 4.5” value was “L (low solubility if the threshold concentration is <31.3 04)”; the “turbidity threshold (L, M, H) 6.8” value was “L (low solubility if the threshold concentration is <31.3 04)”; the “turbidity threshold (L, M, H) 1.4” value is “M (moderate solubility if the threshold concentration is 31.3 μM to 250 μM)”. Further, the IC50 at CYP2C19 was greater than 10 µM. Moreover, at CYP2C9, the IC50 is greater than 10 µM.
Regarding `CCCS(=O)(=O)Nc1ccc(F)c(C(=O)c2c[nH]c3ncc(-c4cnc(OC)nc4OC)cc23)c1F` [P-2199, Propane-1-sulfonic acid {3-[5-(2,4-dimethoxy-pyrimidin-5-yl)-1H-pyrrolo[2,3-b]pyridine-3-carbonyl]-2,4-difluoro-phenyl}-amide], the 50% inhibitory concentration (IC50) against c-Raf-1 was less than 0.01 µM; at B-Raf V600E it was less than 0.01 µM; on CYP2C19, greater than 10 µM; at CYP2C9 it was greater than 10 µM.
`CCCS(=O)(=O)Nc1ccc(F)c(C(=O)c2c[nH]c3ncc(-c4ccc(N)nc4)cc23)c1F` [P-2214, Propane-1-sulfonic acid {3-[5-(6-amino-pyridin-3-yl)-1H-pyrrolo[2,3-b]pyridine-3-carbonyl]-2,4-difluoro-phenyl}-amide]: the IC50 was less than 0.01 µM against c-Raf-1, less than 0.01 µM against B-Raf V600E, 5 to 10 µM on CYP2C19 and greater than 10 µM on CYP2C9.
As for `CCCS(=O)(=O)Nc1ccc(F)c(C(=O)c2c[nH]c3ncc(-c4ccc(S(=O)(=O)CC)cc4)cc23)c1F` [P-2218, Propane-1-sulfonic acid {3-[5-(4-ethanesulfonyl-phenyl)-1H-pyrrolo[2,3-b]pyridine-3-carbonyl]-2,4-difluoro-phenyl}-amide], the IC50 at c-Raf-1 is less than 0.1 µM; against B-Raf V600E it was less than 0.1 µM; at CYP2C9 it was greater than 10 µM.
For `CCCS(=O)(=O)Nc1ccc(F)c(C(=O)c2c[nH]c3ncc(-c4cccc(S(C)(=O)=O)c4)cc23)c1F` [P-2228, Propane-1-sulfonic acid {2,4-difluoro-3-[5-(3-methanesulfonyl-phenyl)-1H-pyrrolo[2,3-b]pyridine-3-carbonyl]-phenyl}-amide], the IC50 against c-Raf-1 is less than 0.01 µM; against B-Raf V600E, less than 0.01 µM; on CYP2C19, greater than 10 µM; on CYP2C9, greater than 10 µM.

(Values after patent US8198273B2, “Compounds and methods for kinase modulation, and indications therefor” (Plexxikon Inc., priority 2009, dated 2012).)
